Results reported in ChEMBL document CHEMBL5233262, “Anti-inflammatory activity of naturally occuring diarylheptanoids - A review” (Bioorg Med Chem, 2021).

Assays:
J774.1 = test: Antiinflammatory activity in mouse J774.1 cells assessed as inhibition of LPS-induced NO production incubated for 48 hrs by Griess reagent based analysis; assay type: functional, cell-based
RAW264.7 [1] = test: Antiinflammatory activity in mouse RAW264.7 cells assessed as inhibition of LPS-induced NO production preincubated for 1 hrs followed by LPS stimulation and measured after 24 hrs by Griess reagent based spectrophotometrical method; assay type: functional, cell-based
[2] = Antiinflammatory activity in mouse N11 cells assessed as inhibition of LPS-induced TNFalpha level preincubated for 1 hrs followed by LPS stimulation and measured after 24 hrs by ELISA; assay type: functional, cell-based
RAW264.7 [3] = test: Antiinflammatory activity in mouse RAW264.7 cells assessed as inhibition of LPS-induced NO production preincubated for 1 hrs followed by LPS stimulation and measured after 24 hrs by Griess method; assay type: functional, cell-based
RAW264.7 [4] = test: Antiinflammatory activity in mouse RAW264.7 cells assessed as inhibition of LPS-induced TNFalpha level preincubated for 1 hrs followed by LPS stimulation and measured after 24 hrs by ELISA; assay type: functional, cell-based
[5] = Antiinflammatory activity in mouse N11 cells assessed as inhibition of LPS-induced NO production preincubated for 1 hrs followed by LPS stimulation and measured after 24 hrs by Griess method; assay type: functional, cell-based
Mus musculus [6] = test: Antiinflammatory activity in ICR mouse model of TPA-induced ear edema assessed as inhibition of ear inflammation at 1 mg,TOP for 30 mins followed by TPA addition and measured after 6 hrs; assay type: functional; settings: time 390 min, 6.5 h
RAW264.7 [7] = test: Antiinflammatory activity in mouse RAW264.7 cells assessed as inhibition of LPS-induced NO production preincubated for 0.5 hrs followed by LPS stimulation and measured after 24 hrs by Griess reagent based analysis; assay type: functional, cell-based
RAW264.7 [8] = test: Antiinflammatory activity in mouse RAW264.7 cells assessed as inhibition of LPS-induced NO production for 24 hrs by Griess assay; assay type: functional, cell-based; settings: RAW264.7, 24 h
[9] = Antioxidant activity assessed as ABTS radical scavenging activity measured after 6 mins; assay type: functional
[10] = Antioxidant activity assessed as DPPH radical scavenging activity incubated for 30 mins by spectrophotometric analysis; assay type: functional
Mus musculus [11] = test: Antiinflammatory activity in TPA-induced ear edema ICR mouse model assessed as inhibition of ear inflammation at 1 ug, TOP for 30 mins followed by TPA addition and measured after 6 hrs; assay type: functional; settings: dose 1 µg, time 390 min, 6.5 h
[12] = Inhibition of COX in bovine seminal vesicle assessed as reduction in PGE2 production using arachidonic acid as substrate; assay type: tissue-based, Bos taurus
Zingiber officinale = test: Inhibition of prostaglandin biosynthesis in ginger; assay type: functional, organism-based
[13] = Antioxidant activity assessed as […] radical scavenging activity at 50 uM; assay type: functional
Rattus norvegicus = test: Antiinflammatory activity in rat model of carrageenan-induced paw edema assessed as reduction in paw thickness at 10 mg/kg,ip and measured after 4 hrs; assay type: functional; set-up: scale not given: the % may be the effect or the level left
RAW264.7 [14] = test: Antiinflammatory activity in mouse RAW264.7 cells assessed as inhibition of LPS-induced NO production at 30 uM preincubated for 0.5 hrs followed by LPS stimulation and measured after 24 hrs by Griess reagent based analysis; assay type: functional; settings: time 24.5 hrs
RAW264.7 [15] = test: Antiinflammatory activity in mouse RAW264.7 cells assessed as inhibition of LPS-induced NO production incubated for 18 hrs by Griess method; assay type: functional, cell-based; settings: RAW264.7, 18 h

COc1cc(O)c([C@H](/C=C/C[C@H](CCc2ccc(O)cc2)OO)c2ccc(O)cc2)c(O)c1C(=O)/C=C/c1ccc(O)cc1 gave an IC50 (J774.1; Mus musculus, J774.1, 48 h) of 49 µM.
In the case of N=C(NCCC[C@H](N)C(=O)O)N[N+](=O)[O-] [NITROARGININE], the IC50 (RAW264.7 [1]) is reported as 39.5 µM.
In the case of COc1ccc(C/C=C/CCCCc2ccc(OC)c(OC)c2)cc1, the IC50 [2] is reported as 4.3 µM, the IC50 (RAW264.7 [3]) is reported as 28.3 µM and the IC50 (RAW264.7 [4]) is reported as 5.3 µM. It also gave an IC50 [5] of 12.7 µM.
Work on COc1cc(/C=C/C(=O)CC(=O)CCc2ccc(O)c(OC)c2)ccc1O yielded an IC50 (J774.1; Mus musculus, J774.1, 48 h) of 181 µM.
Oc1ccc2cc1Oc1ccc(cc1)CCCC[C@@H](O)CC2 showed an ID50 (Mus musculus [6]) of 0.26 mg.
Oc1ccc(CC[C@H](O)CCCCc2ccc(O)c(O)c2)cc1 showed an IC50 (RAW264.7 [7]) of 22.1 µM.
In the case of Oc1ccc(CC[C@@H]2C[C@@H](O)C[C@H](c3ccc(O)c(O)c3)O2)cc1, the IC50 (RAW264.7 [8]) is reported as 27.9 µM.
COc1cc(O)c([C@@H](/C=C/C[C@@H](O)CCc2ccc(O)cc2)c2ccc(O)cc2)c2oc(-c3ccc(O)cc3)cc(=O)c12 (stereo in doubt; 113) showed an IC50 (J774.1; j774.1) of 83 µM.
For COc1cc(O)c([C@H](/C=C/C[C@@H](O)CCc2ccc(O)cc2)c2ccc(O)cc2)c(O)c1C(=O)[C@@H]1[C@H](/C=C/c2ccc(O)cc2)C[C@H](CCc2ccc(O)cc2)O[C@H]1c1ccc(O)cc1, the IC50 (J774.1; Mus musculus, J774.1, 48 h) was 36 µM.
For COc1c2cc(c(OC)c1OC)-c1cc(ccc1O)CC(O)C(=O)CCCC2 (configuration not stated), the IC50 [9] was 73.7 µM, the IC50 (RAW264.7 [1]) was 46.9 µM and the IC50 [10] was > 250 µM.
Work on CO[C@@H](CCc1ccccc1)CC(=O)CCc1ccccc1 yielded an ID50 (Mus musculus [11]) of 2.7 µmol.
For NC1=NN(c2cccc(C(F)(F)F)c2)CC1 [BW-755C], the IC50 [12] was 32 µM.
In the case of COc1cc(CCC(=O)CC(=O)CCc2ccccc2)ccc1O, the IC50 (Zingiber officinale) is reported as 4.4 µM.
COc1ccc(C/C=C/CCCCc2ccc(O)c(O)c2)cc1 showed an IC50 [2] of 23.3 µM, an IC50 (RAW264.7 [3]) of 25.1 µM and an IC50 (RAW264.7 [4]) of 15.9 µM. The IC50 [5] was 41.3 µM.
With CCC(C)C(=O)O[C@@H]1[C@@H](O[C@@H](CCc2ccc(O)c(O)c2)CC(=O)CCc2ccc(O)c(O)c2)OC[C@H](O)[C@H]1O (some centres not stated) the IC50 (RAW264.7 [7]) was 30 µM.
CO[C@@H](CCc1ccc(O)cc1)CC(=O)CCc1ccc(O)cc1 gave an IC50 (RAW264.7 [7]) of 15.2 µM.
Work on O=C1CCc2ccc(cc2)Oc2cc(ccc2O)CC[C@@H](O[C@@H]2O[C@H](CO)[C@@H](O)[C@H](O)[C@H]2O)C1 yielded an ID50 (Mus musculus [6]) of 0.49 mg.
For COc1c2cc(c(O[C@@H]3O[C@H](CO)[C@@H](O)[C@H](O)[C@H]3O)c1OC)CCCC[C@H](O)CCc1ccc(O)c-2c1, the Activity [13] was 41% and the Activity (Rattus norvegicus) was 47.1%.
With OC[C@H]1O[C@@H](O[C@H](CCCCc2ccc(O)c(O)c2)CCc2ccc(O)cc2)[C@H](O)[C@@H](O)[C@@H]1O the inhibition at 30 µM (RAW264.7 [14]) was 11%.
For O=C(CCc1ccc(O)c(O)c1)C[C@H](CCc1ccc(O)c(O)c1)O[C@H]1OC[C@H](O)[C@@H](O)[C@@H]1OC(=O)/C=C/c1ccccc1, the IC50 (RAW264.7 [7]) was 10.5 µM.
COc1cc(C(O)C(O)C(O)CC(O)C(O)Cc2ccc(O)cc2)ccc1O (configuration not stated) gave an IC50 (RAW264.7 [8]) of 46.7 µM.
Oc1ccc(CC[C@H](O)C[C@H](O)CCc2ccc(O)c(O)c2)cc1 showed an IC50 (RAW264.7 [8]) of 27 µM.
In the case of COc1c2cc(c(O[C@@H]3O[C@H](CO)[C@@H](O)[C@H](O)[C@H]3O)c1OC)CCCCC(=O)CCc1ccc(O)c-2c1, the Activity [13] is reported as 41% and the Activity (Rattus norvegicus) is reported as 46.9%.
Molecule COc1cc(O)c([C@@H](/C=C/C[C@@H](O)CCc2ccc(O)cc2)c2ccc(O)cc2)c(O)c1C(=O)[C@@H]1[C@H](/C=C/c2ccc(O)cc2)C[C@H](CCc2ccc(O)cc2)O[C@H]1c1ccc(O)cc1 has an IC50 (J774.1; Mus musculus, J774.1, 48 h) of 39 µM.
COc1cc2cc(c1O)-c1cc(ccc1O)CCC(=O)CCCC2 [MYRICANANIN C] showed an IC50 [9] of 12 µM and an IC50 (RAW264.7 [1]) of 13 µM.
Work on O=C(CCCCc1ccc(O)cc1)CCc1ccc(O)c(O)c1 yielded an IC50 (RAW264.7 [15]) of 13.2 µM.
